One assay has as its system BR16 CTC-derived cells. As to the kind of experiment: FDA-approved compound screen for CTC cluster dissociation (high content imaging). The format is cell-based, human. Particulars: even at lowest concentration tested (0.1 μM), 2 days, hypoxia. As for the experimental part: In order to identify actionable vulnerabilities of CTC clusters, and to test whether the epigenetic and transcriptional features of clustered CTCs are reversible upon cluster dissociation into single cells the following steps were undertaken. First, the expression of all known cell-cell junction (CCJ) components in patient samples obtained from normal breast (TGCA REF), breast cancer (TOGA REF), single CTCs and CTC clusters were assessed (Aceto et al. Cell 2014). While breast cancer cells tend to only partially reduce their CCJ repertoire compared to normal breast cells, CTCs express only a small fraction of CCJ components, likely as a consequence to their increased motility. Yet, CTC clusters retain a higher number of CCJs as compared to single CTCs. […] To this end, 2′486 FDA-approved compounds were evaluated for their ability to dissociate clusters of human breast CTC-derived cells. Cluster dissociation was assessed using a high content screening microscope and comparing cells treated with each individual compound to steady state clustered BR16 cells and 40 μm-filtered BR16 single cell suspension as negative and positive controls, respectively (FIG. 4a). […] For the majority of the 2′486 FDA-approved compounds, when using a 5 μM concentration for 2 days in hypoxic conditions, no detectable reduction in cell viability (>70% viability) nor mean cluster size (>450 μm2) in BR16 CTC-derived cells was observed. […] These compounds include inhibitors of Na^+/K^+ ATPases (n=6), HDACs (n=2), nucleotide biosynthesis (n=5), kinases (n=4), GPCRs (n=2), cholesterol biosynthesis (n=1), nuclear export (n=1), tubulin (n=9), as well as DNA binding compounds (n=8) and antibiotics (n=1).
A library containing 2,486 FDA-approved compounds was purchased from the Nexus Platform ETH Zurich. Each compound was resuspended using CTC medium at a 15 μM concentration and 20 μl were aliquoted in duplicate in a total of 64 Flat Bottom Clear Ultra Low attachment 96-well plates (Corning, Cat #3474).
To reduce cluster size in CTC derived cell lines, a 40 μm cell strainer was used (Corning, Cat #431750). […] Plates were incubated in hypoxia (5% oxygen) for 2 days and then 20 μl were transferred into a 96 well Black/clear Tissue culture treated plate (BD Falcon, Cat #353219) containing 40 μl of D-PBS (Invitrogen, Cat #14190169) and stained for 1 hr at 37° C. with a final concentration of 4 μM Hoechst 34580 (Invitrogen, Cat #H21486), 2 μM TMRM (Invitrogen, Cat #T668) and 4 μM TOTO-3 (Invitrogen, Cat #T3604). For each plate, two positive controls (non-treated cells) and two negative controls (non-treated and […] cells) were included. Z-factors were calculated per individual plate using the following formula: Z′=1−3(σs+σc)/|μs−μc|^3 (σ: standard deviation, μ: mean, s: positive control and c: negative control) (Martin et al., PLoS One 9, e88338, 2014) and ranged between 0.62-0.937. Plates were scanned using Operetta High Content Imaging System (Perkin Elmer) and cluster analysis was performed using Harmony High Content Imaging and Analysis Software (Perkin Elmer).

Assay [1] concerns BRx50 human CTC-derived cells. Described as above. The conditions noted are these: even at lowest concentration tested (0.1 μM). Format: cell-based.
For a further assay, the system named is LM2 xenografts. As to the kind of experiment: LM2 xenograft, spontaneous CTC clusters and metastasis. The format is in vivo, NSG mice. The conditions noted are these: LM2 xenograft, digoxin 2 mg/kg vs vehicle.
The next assay relates to BR16 xenografts. As to the kind of experiment: BR16 xenograft (mammary fat pad), spontaneous CTC clusters and metastasis. Particulars: digoxin 2 mg/kg vs vehicle. Format: in vivo, NSG mice. As to the method:
Blood specimens for CTC analysis were obtained from University Hospital Basel after informed patient consent according to protocol EKNZ BASEC 2016-00067 and EK 321/10, which received ethical approval from the Swiss authorities (EKNZ, Ethics Committee northwest/central Switzerland). An average of 7.5 ml of blood per patient was drawn in EDTA vacutainers. Within 1 hr from blood draw, the blood was processed through Parsortix GEN3D6.5 Cell Separation Cassette (Angle Europe). For mouse studies, blood was retrieved via cardiac puncture and 1 ml of blood was similarly processed through a Parsortix device. Captured CTCs were further stained on Parsortix cassette with EpCAM-AF488 conjugated (CellSignaling, Cat #CST5198), HER2-AF488 (#324410, BioLegend), EGFR-FITC conjugated (GeneTex, Cat #GTX11400) and CD45-BV605 conjugated (Biolegend, Cat #304042 (anti-human); Cat #103140 (anti-mouse)) antibodies. For all other models (xenografts), carrying cancer cells stably expressing a GFP-Luciferase reporter, only anti-CD45 staining was performed, while CTCs were identified based on GFP expression. The number of captured CTCs, including single CTCs, CTC clusters and CTC-WBC clusters, was determined while cells were still in the cassette. CTCs were then released from the cassette in DPBS (#14190169, Gibco) onto ultra-low attachment plates (#3471-COR, Corning). Representative pictures were taken at 40× magnification with Leica DM14000 fluorescent microscope using Leica LAS and analyzed with ImageJ.
For tail vein experiments, NOD SCID Gamma (NSG) mice (Jackson Labs) were injected with 1×10^6 BR16-mCherry cells resuspended in 100 μl D-PBS and monitored with IVIS Lumina II (Perkin Elmer). For CTC xenograft mouse model isolation, 1×10^6 LM2-GFP, 1×10^6 BRx50-GFP or 1×10^6 BR16-GFP cells were resuspended in 100 μl of 50% Cultrex PathClear Reduced Growth Factor Basement Membrane Extract (R&D Biosystems, Cat #3533-010-02) in D-PBS and injected orthotopically in NSG mice. Blood draw was performed 4-5 weeks after tumor onset for LM2 cells, 5-6 months after tumor onset for BR16 and 6-7 months after tumor onset for BRx50 cells.

We go through five molecules from patent publication US20220062317A1, “NA+/K+ ATPASE INHIBITORS FOR USE IN THE PREVENTION OR TREATMENT OF METASTASIS” (UNIVERSITÄT BASEL, priority 2018, published 2022).

“Also recorded” adds a separate entry of the source. Where a name gives a salt, the structure may show the parent alone.

Regarding `COc1cc2c(c(OC)c1OC)-c1ccc(OC)c(=O)cc1[C@@H](NC(C)=O)CC2` [colchicine], the mean cluster size result (with BR16 CTC-derived cells; in assay [1]) was “significant decrease in mean cluster size” each time.
Regarding `C[C@H]1O[C@@H](O[C@H]2[C@@H](O)C[C@H](O[C@H]3[C@@H](O)C[C@H](O[C@H]4CC[C@@]5(C)[C@H](CC[C@@H]6[C@@H]5C[C@@H](O)[C@]5(C)[C@@H](C7=CC(=O)OC7)CC[C@]65O)C4)O[C@@H]3C)O[C@@H]2C)C[C@H](O)[C@@H]1O` [digoxin, Digoxin], in the assay with LM2 xenografts, the “formation of CTC clusters (CTC fold change)” value was “reduced the formation”, the “formation of CTC-neutrophil clusters (CTC fold change)” value is on record as “reduced the formation”, the overall survival result is “prolonged overall survival” and the “tumor size / tumor growth rate over time” value is “No significant differences are observed; also recorded: no significant difference”. In addition, the overall survival entry in the assay on LM2 xenografts (listed as Digoxin) is on record as “prolongs overall survival”. In the assay with BR16 xenografts, the “metastasis (metastatic index)” value is “suppresses metastasis”, the “number of CTC clusters” value was “clear decrease”, the “number of CTC-neutrophil clusters” value is recorded as “clear decrease” and the “tumor size / tumor growth rate over time” value is listed as “No significant differences are observed; also recorded: no significant difference”.
In the case of `CC[C@]1(O)C[C@H]2CN(CCc3c([nH]c4ccccc34)[C@@](C(=O)OC)(c3cc4c(cc3OC)N(C=O)[C@H]3[C@@](O)(C(=O)OC)[C@H](OC(C)=O)[C@]5(CC)C=CCN6CC[C@]43[C@@H]65)C2)C1` [vincristine sulfate], the mean cluster size result (in the assay with BR16 CTC-derived cells; in assay [1]) was “significant decrease in mean cluster size” throughout.
On to `COc1cc(OC)c(/C=C/S(=O)(=O)Cc2ccc(OC)c(NCC(=O)O)c2)c(OC)c1` [rigosertib], for which the mean cluster size result (with BR16 CTC-derived cells; in assay [1]) was “significant decrease in mean cluster size” throughout.
On to `COc1cc([C@@H]2c3cc4c(cc3[C@H](O)[C@H]3COC(=O)[C@H]23)OCO4)cc(OC)c1OC` [podofilox], for which the mean cluster size entry (with BR16 CTC-derived cells; in assay [1]) was “significant decrease in mean cluster size” in each case.
